IC50 and IC90 data for 5 molecules are collected here from patent publication US7638553B2, “Hydroxamates, their manufacture and use as pharmaceutical agents” (Hoffmann-La Roche Inc., priority 2004, dated 2009).

One assay deals with T1, recombinant HDAC-1 (Homo sapiens, UniProt Q13547).
T1 construct: made in house; host or cells: HEK 293 cells (ATCC-No. CRL 1573)
The assay can be described thus: HDAC biochemical quench assay. The note with it: recombinant HDAC-1 purified from HEK 293 cells; 1 μM peptide substrate, 90 min at room temperature. The source says:
The function of histone deacetylase (HDAC) is the deacetylation of lysines in e.g. histone H4. A peptide of 17 amino acids derived from histone H4 was labeled with tetramethylrhodamine (TAMRA, fluorophore, Invitrogen) at the C-terminus and QSY-7™ (quencher dye, Invitrogen) at the N-terminus and was used as a substrate (TAMRA—first 17 aa of histone H4—QSY7). Following deacetylation by HDAC, the enzyme Lys C is able to cleave the peptide after lysine. […] Inhibition of HDAC by compounds results in low signals because Lys C could not cleave the substrate and the quench effect persists.
For dose response curves, 10 concentrations were diluted 1:3 starting at 30 μM. 10 μl compound dilution were put into each well of a 384 well plate. 10 μl HDAC were added (recombinant HDAC-1 purified from HEK 293 cells (human embryonic kidney cell line transformed by Adenovirus 5 fragments, ATCC-No. CRL 1573); enzyme activity has to be assessed for each preparation). 10 μl peptide substrate was added (1 μM final concentration, derived from 1 mM stock solution diluted 1:1000 in test buffer). After 90 min incubation at room temperature, the reaction was stopped by addition of 20 μl test buffer including 3 μg/ml Lys C and 0.075% Sodium Dodecyl Sulfate (SDS). After overnight incubation the fluorescence signal of TAMRA was measured (Victor 2 from Wallac, absorption 544 nm, emission 590 nm). […]

The next assay concerns HT-29 cells. The assay is described as follows: MTT assay on HT-29 human colon carcinoma cell line. Type of assay: cell-based. To be noted: MTT assay after 5 days, read-out: IC90 HT29. The protocol:
To show the activity of the compounds according to this invention, their effects on a human colon carcinoma cell line was evaluated using a standard MTT-assay. MTT (3-(4,5-dimethylthiazol-2-yl)-2,5-diphenyl tetrazolium bromide) is widely used for the quantitative determination of cytotoxic effects or in vitro chemosensitivity of tumor cells. The assay is based on the cleavage of the yellow tetrazolium salt (MTT) to purple formazan crystals by metabolic active cells. For details, see Rubinstein, L. V., et al., J. Natl. Cancer Inst. 82 (1990) 1113-1118.
We proceeded as follows: HT-29 cells (human colon carcinoma cell line, ATCC-No. HTB-38) were cultivated in RPMI 1640 medium with GlutaMAX™ I (Invitrogen, Cat-No. 61870-010), 2.5% fetal calf serum (FCS, Sigma Cat-No. F4135 (FBS)), 2 mM glutamine, 100 units/ml penicillin, 100 μg/ml streptomycin (=Pen/Strep from Invitrogen Cat. No. 15140). For the assay the cells were seeded in 384 well plates, 900 cells per well, in the same medium. At the next day, the compounds (dissolved 10 mM in DMSO) were added in various concentrations ranging from 30 μM to 1.5 nM. After 5 days, the MTT assay was done mainly according to the instructions of the manufacturer (Cell proliferation kit I, MTT, from Roche Molecular Biochemicals). In brief: MTT labeling reagent was added to a final concentration of 0.5 mg/ml, added and incubated for 4 hrs at 37° C., 5% CO2. During this incubation time purple formazan crystals are formed. After addition of the solubilization solution (20% Sodium Dodecyl Sulfate (SDS) in 0.02 M HCl) the plates were incubated overnight at 37° C., 5% CO2. After careful mixing, the plates were measured in Victor 2 (scanning multiwell spectrophotometer, Wallac) at 550 nm.
A decrease in number of living cells results in a decrease in the total metabolic activity in the sample. The decrease directly correlates to the amount of purple colour resulting from the solubilization of the purple formazan crystals. Determination of IC90 was done using XL-fit (XLfit software (ID Business Solution Ltd., Guilford, Surrey, UK)).

T1 sequence (Q13547 whole entry, species assumed): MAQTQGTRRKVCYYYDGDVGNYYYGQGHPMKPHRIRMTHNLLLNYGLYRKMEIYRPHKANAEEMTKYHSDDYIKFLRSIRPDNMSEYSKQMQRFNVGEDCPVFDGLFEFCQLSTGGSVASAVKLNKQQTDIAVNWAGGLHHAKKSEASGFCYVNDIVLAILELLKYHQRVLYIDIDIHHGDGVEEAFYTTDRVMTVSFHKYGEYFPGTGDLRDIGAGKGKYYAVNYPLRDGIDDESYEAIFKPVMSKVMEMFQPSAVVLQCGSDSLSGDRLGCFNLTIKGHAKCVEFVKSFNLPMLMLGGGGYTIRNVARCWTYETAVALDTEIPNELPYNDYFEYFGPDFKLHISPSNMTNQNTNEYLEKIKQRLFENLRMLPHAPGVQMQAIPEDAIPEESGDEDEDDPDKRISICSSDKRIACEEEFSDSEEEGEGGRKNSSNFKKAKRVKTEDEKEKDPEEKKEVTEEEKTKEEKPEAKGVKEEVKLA

Broadly, the IC50 is the concentration that inhibits the measured activity by half. As for `CC(NC(=O)c1ccc(C(=O)NO)s1)c1ccc(OC(F)(F)F)cc1` (centres unmarked) [Example 2-1, Thiophene-2,5-dicarboxylic acid 2-hydroxyamide 5-{[1-(4-trifluoromethoxy-phenyl)-ethyl]-amide}], the IC50 on recombinant HDAC-1 came out at 3.11 nM. On to `CSc1ccc(C(C)NC(=O)c2ccc(C(=O)NO)s2)cc1` (centres unmarked) [Example 2-3, Thiophene-2,5-dicarboxylic acid 2-hydroxyamide 5-{[1-(4-methylsulfanyl-phenyl)-ethyl]-amide}], for which, on recombinant HDAC-1, the IC50 turned out to be 2.26 nM. Usually IC90 stands for the concentration needed for an effect of 90%. For `CC(NC(=O)c1ccc(C(=O)NO)s1)c1cccc(SC(F)(F)F)c1` (centres unmarked) [Example 2-2, Thiophene-2,5-dicarboxylic acid 2-hydroxyamide 5-{[1-(3-trifluoromethylsulfanyl-phenyl)-ethyl]-amide}], the IC90 with HT-29 cells amounted to 210 nM. In the case of `CC(NC(=O)c1ccc(C(=O)NO)s1)c1ccc(SC(F)(F)F)cc1` (centres unmarked) [Example 1, Thiophene-2,5-dicarboxylic acid 2-hydroxyamide 5-{[1-(4-trifluoromethylsulfanyl-phenyl)-ethyl]-amide}], the IC90 with HT-29 cells came to 340 nM. Still for that read-out and setting: for `CC(NC(=O)c1ccc(C(=O)NO)s1)c1cccc(OC(F)(F)F)c1` (centres unmarked) [Example 3, Thiophene-2,5-dicarboxylic acid 2-hydroxyamide 5-{[1-(3-trifluoromethoxy-phenyl)-ethyl]-amide}] the value was 220 nM.
